According to publication PMC6615252, “The binding affinity of PTPN13’s tandem PDZ2/3 domain is allosterically modulated” (BMC Molecular and Cell Biology, 2019):
Several values for one entry are separate records, joined by “and”; a condition that tells them apart may be missing. Equal values may be shown once. Entries after “also recorded” stand apart in the source; their conditions may differ. One block for each molecule: values may come before it. Residues, ends and D or L forms follow the SMILES beside them.

How the values were obtained:
[1] = target: T1, PDZ2 domain of PTPN13 (Mus musculus, UniProt Q64512); assay: NMR titration (2D 1H-15N-HSQC chemical shift perturbation) of 15N-enriched single PDZ2 domain with C-terminal dodecapeptides; assay type: binding; settings: for NMR chemical shift perturbations of PDZ2 on peptide binding: 2D 1H-15N-HSQC, 298 K, pH 7.4
T1 construct: pGEX-2 T-PDZ2 (PTPN13 residues 1347–1450); GST (N, cleaved yes); made in house; host or cells: E. coli BL21(DE3)
T1 sequence (Q64512 1347-1450): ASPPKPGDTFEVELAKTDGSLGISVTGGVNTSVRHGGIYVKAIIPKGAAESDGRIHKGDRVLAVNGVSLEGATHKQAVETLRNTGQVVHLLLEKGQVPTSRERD
Experimental: (§1) We have applied multidimensional heteronuclear NMR spectroscopy in order to elucidate the binding affinities of the PDZ2 single domain and the tandem domain PDZ2/3 of PTPN13 for the chemically synthesized C-terminal dodecapeptides derived from APC and PRK2. The binding characteristics were analyzed in a titration series of the dodecamer peptides and ^15N isotopically-enriched PDZ2 and PDZ2/3 samples, respectively, and by monitoring the NMR chemical shift perturbations in a series of 2D ^1H-^15N heteronuclear single quantum coherence (HSQC) spectra with increasing ligand concentrations. It could be shown that all peptides bind to the canonical binding groove of PDZ domains (Figs. 1, 2, 3 and 4).
Bacterial expression plasmids pGEX-2 T-PDZ2 (PTPN13 residues 1347–1450), pGEX-2 T-PDZ3 (PTPN13 residues 1474–1580), and pGEX-2 T-PDZ2/3 (PTPN13 residues 1347–1580) were constructed by sub-cloning of PCR-generated PTPN13 cDNA fragments in-frame into appropriate pGEX-2 T vectors.
(§2) NMR spectra were acquired at 298 K on Bruker DRX 600 and AVANCE III HD 700 spectrometers. Typically, NMR samples contained 0.1–0.5 mM uniformly ^13C and/or ^15N-enriched protein in PBS buffer at pH 7.4 including 10% D2O [42–44]. All data were processed with either NMRPipe and analyzed with NMR View or TopSpin (www.bruker.com). […] The interaction between PDZ2 and PDZ3 was analyzed upon titrating PDZ3 to isotopically ^15N-enriched PDZ2 at a molar ratio of 1:1 at 298 K by recording 2D ^1H-^15N-HSQC NMR spectra. […] The differences in backbone ^1H and ^15N NMR chemical shifts were monitored via 2D ^1H-^15N-HSQC NMR spectra. The weighted ^1HN and ^15N chemical shift differences were calculated according to the following equation [45, 47]: […]
(§3) Averaged dissociation constants for the different complexes were calculated from least-squares fitting of the NMR chemical shift perturbations observed for several amino acids as a function of ligand concentration. NMR chemical shift perturbation data were analysed with the ORIGIN software package (www.originlab.com) as previously published. […]

[2] = target: T2, PDZ2 in PDZ2/3 tandem domain of PTPN13 (Mus musculus, UniProt Q64512); assay: NMR titration of PDZ2/3 tandem domain, PDZ2 resonances (PDZ2 in PDZ2/3); assay type: binding; settings: final stoichiometric ratio APC:PDZ2/3 30:1
T2 construct: pGEX-2 T-PDZ2/3 (PTPN13 residues 1347–1580); GST (N, cleaved yes); made in house; host or cells: E. coli BL21(DE3)
T2 sequence (Q64512 1347-1580): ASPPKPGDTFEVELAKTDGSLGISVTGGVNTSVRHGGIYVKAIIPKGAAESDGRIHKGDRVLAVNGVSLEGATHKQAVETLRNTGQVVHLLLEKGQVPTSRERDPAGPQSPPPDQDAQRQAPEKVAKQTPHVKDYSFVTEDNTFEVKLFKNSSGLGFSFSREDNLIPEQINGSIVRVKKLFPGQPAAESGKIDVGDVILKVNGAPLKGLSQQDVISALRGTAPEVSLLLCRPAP
Experimental: as §1, with “4). […]” for “4).”
as §2, with “Typically, NMR samples contained 0.1–0.5 mM uniformly ^13C and/or ^15N-enriched protein in PBS buffer at pH 7.4 including 10% D2O [42–44].” left out

[3] = target: T3, PDZ3 in PDZ2/3 tandem domain of PTPN13 (Mus musculus, UniProt Q64512); assay: NMR titration of PDZ2/3 tandem domain, PDZ3 resonances (PDZ3 in PDZ2/3); assay type: binding; settings: data not shown
T3 construct: pGEX-2 T-PDZ2/3 (PTPN13 residues 1347–1580); GST (N, cleaved yes); made in house; host or cells: E. coli BL21(DE3)
T3 sequence (Q64512 1347-1580): T2 sequence (Q64512 1347-1580)
Experimental: as §1, with “4). […]” for “4).”
as §2, with “Typically, NMR samples contained 0.1–0.5 mM uniformly ^13C and/or ^15N-enriched protein in PBS buffer at pH 7.4 including 10% D2O [42–44].” left out

[4] = target: T4, PDZ2/3 tandem domain of PTPN13 (Mus musculus, UniProt Q64512); assay: NMR titration of PDZ2/3 tandem domain with APC peptide, chemical shift perturbations and exchange regime; assay type: binding
T4 construct: pGEX-2 T-PDZ2/3 (PTPN13 residues 1347–1580); GST (N, cleaved yes); made in house; host or cells: E. coli BL21(DE3)
T4 sequence (Q64512 1347-1580): T2 sequence (Q64512 1347-1580)
Experimental: as §1
NMR spectra were acquired at 298 K on Bruker DRX 600 and AVANCE III HD 700 spectrometers. Typically, NMR samples contained 0.1–0.5 mM uniformly ^13C and/or ^15N-enriched protein in PBS buffer at pH 7.4 including 10% D2O [42–44]. All data were processed with either NMRPipe and analyzed with NMR View or TopSpin (www.bruker.com). The backbone assignments were obtained from the BioMagResBank accession numbers 15,199 (PDZ2/3) and 5131 (PDZ2). The interaction between PDZ2 and PDZ3 was analyzed upon titrating PDZ3 to isotopically ^15N-enriched PDZ2 at a molar ratio of 1:1 at 298 K by recording 2D ^1H-^15N-HSQC NMR spectra. […] The differences in backbone ^1H and ^15N NMR chemical shifts were monitored via 2D ^1H-^15N-HSQC NMR spectra. The weighted ^1HN and ^15N chemical shift differences were calculated according to the following equation [45, 47]: […]
as §3, with “published. The error for KD values was calculated from the individual fit of several significant chemical shift perturbations found for the amide resonances located in and/or next to the canonical PDZ binding cleft.” for “published.”

[5] = target: PDZ3 domain of PTPN13; settings: single PDZ3 domain; NMR titration, 298 K, pH 7.4, PBS, DTT added; ref [12]; read-out: dissociation constant KD, PDZ3; cited from earlier work
Description: The observed differences for APC binding to PDZ2 versus tandem PDZ2/3 are not large yet still considerable.

[6] = system: single PDZ2 domain of PTPN13; settings: previous study; class I (APC) and III (RIL) ligands; ref [21]; cited from earlier work
Description: Based on the results from the NMR chemical shift perturbation analysis and HADDOCK molecular docking calculations we conclude, that an allosteric effect modulates the APC-binding characteristics of PDZ2 from PTPN13 (Fig. 7). Although peptides rather than the corresponding full-length proteins have been used here, numerous studies have shown before that the last four to six carboxy-terminal amino acids are essential for ligand binding to PDZ domains.

[7] = target: T1, PDZ2 domain of PTPN13; assay: NMR titration of single PDZ3 domain to 15N-enriched PDZ2 domain; assay type: binding; settings: 15N-PDZ2, molar ratio 1:1, 2D 1H-15N-HSQC, 298 K; stoichiometry limited by solubility
Experimental: Thus, we titrated the single PDZ3 domain (residues 1491–1579) to the ^15N-enriched PDZ2 domain (residues 1357–1442) and monitored their interaction by recording a series of 2D ^1H-^15N-HSQC NMR spectra (Fig. 4a). […] However, the final maximal stoichiometry of PDZ2 and PDZ3 was approx. 1:1 due to solubility issues.
NMR spectra were acquired at 298 K on Bruker DRX 600 and AVANCE III HD 700 spectrometers. Typically, NMR samples contained 0.1–0.5 mM uniformly ^13C and/or ^15N-enriched protein in PBS buffer at pH 7.4 including 10% D2O [42–44]. All data were processed with either NMRPipe and analyzed with NMR View or TopSpin (www.bruker.com). The backbone assignments were obtained from the BioMagResBank accession numbers 15,199 (PDZ2/3) and 5131 (PDZ2). The interaction between PDZ2 and PDZ3 was analyzed upon titrating PDZ3 to isotopically ^15N-enriched PDZ2 at a molar ratio of 1:1 at 298 K by recording 2D ^1H-^15N-HSQC NMR spectra. In this study, the numbering scheme of the assigned chemical shifts for PDZ2 (5131) and PDZ23 (15199) has been shifted by one residue so that, for example, T30 according to the BMRB entry 5131 now equals T31. […] The differences in backbone ^1H and ^15N NMR chemical shifts were monitored via 2D ^1H-^15N-HSQC NMR spectra. The weighted ^1HN and ^15N chemical shift differences were calculated according to the following equation [45, 47]: […]

[8] = target: T5, APC peptide (Homo sapiens); assay: NMR titration
T5 chain: KRHSGSYLVTSV

[9] = target: T6, PRK2 peptide (Homo sapiens); assay: NMR titration
T6 chain: MFRDFDYIADWC

Kd [8]: 2570 µM
B2: PTPN13 (PDZ3 in PDZ2/3 tandem) PDZ3 in PDZ2/3 (protein)
chain: EVKLFKNSSGLGFSFSREDNLIPEQINASIVRVKKLFPGQPAAESGKIDVGDVILKVNGASLKGLSQQEVISALRGTAPEVFLLLCRP

Kd [9]: 661 µM | Kd [8]: 286 µM
B3: PTPN13 PDZ2 (protein)
chain: DIFEVELAKNDNSLGISVTGGVNTSVRHGGIYVKAVIPQGAAESDGRIHKGDRVLAVNGVSLEGATHKQAVETLRNTGQVVHLLLEKGQSP

Kd [8]: 211 µM
B4: PTPN13 (PDZ2 in PDZ2/3 tandem) PDZ2 in PDZ2/3 (protein)
chain: EVELAKNDNSLGISVTGGVNTSVRHGGIYVKAVIPQGAAESDGRIHKGDRVLAVNGVSLEGATHKQAVETLRNTGQVVHLLLEKG

Second part, the molecule before the results:

Molecule: CC(=O)N[C@@H](CCCCN)C(=O)N[C@@H](CCCNC(=N)N)C(=O)N[C@@H](Cc1c[nH]cn1)C(=O)N[C@@H](CO)C(=O)NCC(=O)N[C@@H](CO)C(=O)N[C@@H](Cc1ccc(O)cc1)C(=O)N[C@@H](CC(C)C)C(=O)N[C@H](C(=O)N[C@H](C(=O)N[C@@H](CO)C(=O)N[C@H](C(=O)O)C(C)C)[C@@H](C)O)C(C)C [APC]
NMR chemical shift perturbations of PDZ2 on peptide binding [1]: leads to NMR chemical shift differences observed along intra-domain signal pathways as previously predicted | peptide-induced dimerisation of PDZ2 ([1]; comparison of free and APC-bound NMR spectra of individual PDZ2): exclude an APC-induced dimerisation of PDZ2 | saturation of PDZ2 resonances at end of titration [2]: no further chemical shift changes were observed for amide resonances originating from the PDZ2 domain | saturation of PDZ3 at end of titration [3]: PDZ3 was not fully saturated at the end of the titration | NMR chemical shift perturbations of PDZ2/3 tandem on titration ([4]; 2D 1H-15N-HSQC, 298 K, pH 7.4): NMR chemical shift perturbations were observed for G12, L19, T31, G63, H94, L95, L97 of PDZ2 and K152 as well as S231 of PDZ3 in the tandem domain | NMR exchange regime of binding to tandem PDZ2/3 ([4]; 298 K, pH 7.4): fast exchange | chemical shift differences between single PDZ2-APC complex and PDZ2 in PDZ2/3-APC complex ([4]; APC peptide at molar ratio 1:30, single PDZ2 vs PDZ2 in PDZ2/3): Major NMR chemical shift perturbations were observed on the back of the PDZ2 domain, i.e. opposite to the canonical PDZ binding cleft, mainly for EF (H94, L95, L97) and for EA (L19) | Kd [5]: ~721 µM and 721 µM | binding to single PDZ2 domain [6]: able to bind

Molecule: CC[C@H](C)[C@H](NC(=O)[C@H](Cc1ccc(O)cc1)NC(=O)[C@H](CC(=O)O)NC(=O)[C@H](Cc1ccccc1)NC(=O)[C@H](CC(=O)O)NC(=O)[C@H](CCCNC(=N)N)NC(=O)[C@H](Cc1ccccc1)NC(=O)[C@H](CCSC)NC(C)=O)C(=O)N[C@@H](C)C(=O)N[C@@H](CC(=O)O)C(=O)N[C@@H](Cc1c[nH]c2ccccc12)C(=O)N[C@@H](CS)C(=O)O [PRK2] (Ac-MFRDFDYIADWC-OH; C-terminus assumed)
NMR chemical shift perturbations of PDZ2 on peptide binding [1]: NMR chemical shift differences were observed for the canonical ligand binding groove of PDZ2 including G23, S24, which are also involved in peptide recognition, and S28, and G31; also recorded: Additional NMR chemical shift perturbations were observed for the β-strands EA and EF of PDZ2, located opposite to its canonical peptide binding groove | Kd [5]: 318 ± 47 µM

B1: PDZ3: single PDZ3 domain (residues 1491–1579) of PTPN13 (protein, UniProt Q12923 1491-1579, looked up, fragment)
chain: YSFVTEENTFEVKLFKNSSGLGFSFSREDNLIPEQINASIVRVKKLFPGQPAAESGKIDVGDVILKVNGASLKGLSQQEVISALRGTAP
modifications: PDZ3 domain
notes: single PDZ3 domain (residues 1491–1579) of PTPN13
chemical shift differences of PDZ2 upon titration with PDZ3 [7]: Only very minor chemical shift differences could be observed, if at all; also recorded: only yielded minor chemical shift differences; also recorded: Only very minor, if at all, chemical shift differences could be observed
